From EP4745135A1 (Gluetacs Therapeutics (Shanghai) Co., Ltd., priority 2023, dated 2025)

Assays:
[1] = target: T1, CK1α (Homo sapiens, UniProt P48729+Q96SW2); test: Western blot, degradation of substrate protein in hPBMCs; type: cell-based
T1 construct: effects of the compounds of the present disclosure on the expression of target proteins in cells; endogenous in cells; host or cells: human PBMCs (Milecell Biotechnologies)

[2] = target: T2, IKZF1 (Homo sapiens, UniProt Q13422+Q96SW2); test: as above; type: cell-based
T2 construct: effects of the compounds of the present disclosure on the expression of target proteins in cells; endogenous in cells; host or cells: human PBMCs (Milecell Biotechnologies)
T2 sequence (Q13422 whole entry): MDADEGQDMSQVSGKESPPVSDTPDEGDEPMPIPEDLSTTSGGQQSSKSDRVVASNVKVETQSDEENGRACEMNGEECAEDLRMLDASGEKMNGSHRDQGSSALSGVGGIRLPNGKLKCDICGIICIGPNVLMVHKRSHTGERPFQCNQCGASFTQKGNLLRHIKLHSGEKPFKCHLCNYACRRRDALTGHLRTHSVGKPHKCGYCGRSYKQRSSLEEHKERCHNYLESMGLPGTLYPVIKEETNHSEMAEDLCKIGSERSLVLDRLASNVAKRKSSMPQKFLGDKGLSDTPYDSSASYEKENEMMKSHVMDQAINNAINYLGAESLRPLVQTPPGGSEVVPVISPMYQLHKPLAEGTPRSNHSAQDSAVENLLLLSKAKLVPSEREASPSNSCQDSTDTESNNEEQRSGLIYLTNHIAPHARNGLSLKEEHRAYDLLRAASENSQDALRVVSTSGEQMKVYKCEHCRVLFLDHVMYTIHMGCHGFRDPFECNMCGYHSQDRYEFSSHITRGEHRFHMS
T2 sequence (Q96SW2 whole entry): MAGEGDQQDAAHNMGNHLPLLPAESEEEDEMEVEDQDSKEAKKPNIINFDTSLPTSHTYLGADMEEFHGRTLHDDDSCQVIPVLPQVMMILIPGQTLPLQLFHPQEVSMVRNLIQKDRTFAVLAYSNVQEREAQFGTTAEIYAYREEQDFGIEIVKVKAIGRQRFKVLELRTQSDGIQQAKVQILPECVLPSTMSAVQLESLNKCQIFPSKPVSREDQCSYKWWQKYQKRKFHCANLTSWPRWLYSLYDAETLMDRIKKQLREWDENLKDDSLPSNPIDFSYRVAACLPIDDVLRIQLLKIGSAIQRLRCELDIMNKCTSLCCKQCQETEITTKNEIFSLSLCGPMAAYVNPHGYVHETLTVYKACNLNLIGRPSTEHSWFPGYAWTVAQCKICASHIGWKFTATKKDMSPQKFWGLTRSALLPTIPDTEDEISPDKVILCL
T2 sequence (Q16531 whole entry partner): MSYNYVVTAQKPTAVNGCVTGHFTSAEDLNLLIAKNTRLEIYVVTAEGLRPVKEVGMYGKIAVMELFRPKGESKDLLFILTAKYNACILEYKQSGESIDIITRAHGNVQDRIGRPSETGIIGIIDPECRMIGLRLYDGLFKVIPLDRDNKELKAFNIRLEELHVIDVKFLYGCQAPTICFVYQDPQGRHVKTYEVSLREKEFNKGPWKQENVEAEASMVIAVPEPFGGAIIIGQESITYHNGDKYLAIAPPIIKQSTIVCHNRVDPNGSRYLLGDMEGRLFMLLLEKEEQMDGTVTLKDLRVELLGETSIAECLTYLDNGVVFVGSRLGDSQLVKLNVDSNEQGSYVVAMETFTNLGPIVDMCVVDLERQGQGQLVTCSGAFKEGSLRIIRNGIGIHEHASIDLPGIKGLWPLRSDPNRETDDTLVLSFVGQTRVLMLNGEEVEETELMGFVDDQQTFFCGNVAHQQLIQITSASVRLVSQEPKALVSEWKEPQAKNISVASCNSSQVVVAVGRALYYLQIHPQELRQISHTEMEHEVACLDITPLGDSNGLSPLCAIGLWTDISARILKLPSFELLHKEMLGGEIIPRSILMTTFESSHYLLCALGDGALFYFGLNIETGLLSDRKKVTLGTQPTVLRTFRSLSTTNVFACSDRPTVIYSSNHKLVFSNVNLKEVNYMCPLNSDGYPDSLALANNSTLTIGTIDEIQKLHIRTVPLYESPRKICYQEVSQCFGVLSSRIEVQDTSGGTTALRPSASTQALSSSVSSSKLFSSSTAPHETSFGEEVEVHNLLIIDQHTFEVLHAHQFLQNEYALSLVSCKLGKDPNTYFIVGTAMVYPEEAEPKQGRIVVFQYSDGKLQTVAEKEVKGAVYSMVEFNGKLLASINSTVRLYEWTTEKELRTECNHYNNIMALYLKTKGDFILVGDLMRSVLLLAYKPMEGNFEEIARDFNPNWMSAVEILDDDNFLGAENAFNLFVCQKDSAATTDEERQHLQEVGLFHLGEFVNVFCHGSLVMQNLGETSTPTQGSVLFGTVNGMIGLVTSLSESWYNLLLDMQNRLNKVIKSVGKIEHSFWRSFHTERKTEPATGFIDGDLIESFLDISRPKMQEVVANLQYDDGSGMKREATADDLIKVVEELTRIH

[3] = target: T3, IKZF2 (Homo sapiens, UniProt Q96SW2+Q9UKS7); test: as above; type: cell-based
T3 construct: effects of the compounds of the present disclosure on the expression of target proteins in cells; endogenous in cells; host or cells: human PBMCs (Milecell Biotechnologies)
T3 sequence (Q9UKS7 whole entry): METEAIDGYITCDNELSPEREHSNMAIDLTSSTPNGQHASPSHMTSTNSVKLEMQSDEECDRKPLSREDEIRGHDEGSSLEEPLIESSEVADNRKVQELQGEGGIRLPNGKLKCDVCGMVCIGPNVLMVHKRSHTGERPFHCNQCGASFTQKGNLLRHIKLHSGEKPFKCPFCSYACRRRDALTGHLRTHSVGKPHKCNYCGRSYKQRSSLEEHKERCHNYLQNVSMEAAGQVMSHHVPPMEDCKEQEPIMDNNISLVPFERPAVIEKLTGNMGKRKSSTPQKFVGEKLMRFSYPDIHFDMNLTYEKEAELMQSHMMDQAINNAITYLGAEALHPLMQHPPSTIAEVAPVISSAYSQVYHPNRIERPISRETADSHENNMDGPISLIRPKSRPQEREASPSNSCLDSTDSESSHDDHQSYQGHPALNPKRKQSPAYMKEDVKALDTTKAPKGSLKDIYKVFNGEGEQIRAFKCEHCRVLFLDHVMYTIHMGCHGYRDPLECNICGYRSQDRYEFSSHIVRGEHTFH
T3 sequence (Q96SW2 whole entry): as the sequence (Q96SW2 whole entry) above
T3 sequence (Q16531 whole entry partner): as the sequence (Q16531 whole entry partner) above

[4] = target: T4, IKZF3 (Homo sapiens, UniProt Q96SW2+Q9UKT9); test: as above; type: cell-based
T4 construct: effects of the compounds of the present disclosure on the expression of target proteins in cells; endogenous in cells; host or cells: human PBMCs (Milecell Biotechnologies)
T4 sequence (Q9UKT9 whole entry): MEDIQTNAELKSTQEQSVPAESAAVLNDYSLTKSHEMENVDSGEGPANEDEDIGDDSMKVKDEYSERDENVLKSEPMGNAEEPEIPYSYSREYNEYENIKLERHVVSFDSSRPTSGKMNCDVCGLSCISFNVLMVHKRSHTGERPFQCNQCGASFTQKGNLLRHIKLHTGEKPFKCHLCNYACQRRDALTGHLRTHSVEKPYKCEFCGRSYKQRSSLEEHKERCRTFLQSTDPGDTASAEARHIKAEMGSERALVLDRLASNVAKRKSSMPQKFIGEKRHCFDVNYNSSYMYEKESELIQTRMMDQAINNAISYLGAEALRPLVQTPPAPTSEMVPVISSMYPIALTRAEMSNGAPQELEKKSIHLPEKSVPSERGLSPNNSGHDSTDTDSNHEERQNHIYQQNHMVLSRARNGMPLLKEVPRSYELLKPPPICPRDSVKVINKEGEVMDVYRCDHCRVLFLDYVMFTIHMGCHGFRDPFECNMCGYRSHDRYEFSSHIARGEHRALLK
T4 sequence (Q96SW2 whole entry): as the sequence (Q96SW2 whole entry) above
T4 sequence (Q16531 whole entry partner): as the sequence (Q16531 whole entry partner) above

[5] = target: T5, WEE1 (Homo sapiens, UniProt P30291+Q96SW2); test: as above; type: cell-based
T5 construct: effects of the compounds of the present disclosure on the expression of target proteins in cells; endogenous in cells; host or cells: human PBMCs (Milecell Biotechnologies)
T5 sequence (P30291 whole entry): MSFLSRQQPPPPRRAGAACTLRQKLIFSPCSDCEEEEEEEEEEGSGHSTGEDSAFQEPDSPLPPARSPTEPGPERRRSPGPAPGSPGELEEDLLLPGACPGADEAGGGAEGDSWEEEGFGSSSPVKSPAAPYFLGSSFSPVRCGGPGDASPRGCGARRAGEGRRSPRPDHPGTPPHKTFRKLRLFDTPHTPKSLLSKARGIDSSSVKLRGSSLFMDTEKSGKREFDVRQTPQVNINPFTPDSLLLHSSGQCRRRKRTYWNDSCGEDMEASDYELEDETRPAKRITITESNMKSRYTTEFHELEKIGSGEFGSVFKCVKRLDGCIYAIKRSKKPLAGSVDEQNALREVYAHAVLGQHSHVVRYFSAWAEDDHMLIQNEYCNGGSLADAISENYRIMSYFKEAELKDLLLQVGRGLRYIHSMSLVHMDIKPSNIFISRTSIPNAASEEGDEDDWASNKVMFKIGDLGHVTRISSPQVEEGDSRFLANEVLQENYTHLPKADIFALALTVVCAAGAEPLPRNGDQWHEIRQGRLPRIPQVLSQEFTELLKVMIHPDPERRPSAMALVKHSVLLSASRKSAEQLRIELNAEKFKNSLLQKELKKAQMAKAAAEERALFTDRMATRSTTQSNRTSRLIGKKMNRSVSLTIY
T5 sequence (Q96SW2 whole entry): as the sequence (Q96SW2 whole entry) above
T5 sequence (Q16531 whole entry partner): as the sequence (Q16531 whole entry partner) above

[6] = system: GSPT1; test: as above; type: cell-based, Human
[7] = target: T6, human Cereblon WT GST-tagged protein (Homo sapiens, UniProt Q96SW2); test: CRBN-binding affinity, HTRF (CEREBLON BINDING kit); details: for inhibition at 0.5 µM: read-out: Inhibition Rate at 0.5 µM (%); for inhibition at 2 µM: read-out: Inhibition Rate at 2 µM (%)
T6 construct: purchased CISBIO 64BDCRBNPEH
T6 sequence (Q96SW2 whole entry): as the sequence (Q96SW2 whole entry) above

[8] = system: Human multiple myeloma cell (MM.1S); test: Tumor cell proliferation inhibition (CellTiter-Meiluncell luminescent cell viability assay); details: Homo sapiens, MM1.S, 96 h; for inhibition at 0.01 µM: read-out: Inhibition Rate at 10 nM (%); for inhibition at 0.5 µM: read-out: Inhibition Rate at 500 nM (%)
[9] = system: Human acute T lymphocytic leukemia cell (Molt4); test: as above; details: MOLT-4, 96 h; for inhibition at 0.01 µM: read-out: Inhibition Rate at 10 nM (%); for inhibition at 0.5 µM: read-out: Inhibition Rate at 500 nM (%)
[10] = system: Human myeloid monocytic leukemia cell (MV-4-11); test: as above; details: MV4-11, 96 h; for inhibition at 0.01 µM: read-out: Inhibition Rate at 10 nM (%); for inhibition at 0.5 µM: read-out: Inhibition Rate at 500 nM (%)
[11] = system: Human acute myeloid leukemia cell line: Kasumi-1; test: as above; details: Kasumi 1, 96 h; for inhibition at 0.01 µM: read-out: Inhibition Rate at 10 nM (%); for inhibition at 0.5 µM: read-out: Inhibition Rate at 500 nM (%)
[12] = system: Human T lymphocytic leukemia cell line: Jurkat; test: as above; details: 96 h; for inhibition at 0.01 µM: read-out: Inhibition Rate at 10 nM (%); for inhibition at 0.5 µM: read-out: Inhibition Rate at 500 nM (%)
[13] = system: Human multiple myeloma peripheral blood B lymphocyte cell (RPMI-8226); test: as above; details: RPMI-8226, 96 h
[14] = system: Human T cell acute lymphoblastic leukemia cell (CCRF-CEM); test: as above; details: 96 h; for inhibition at 0.01 µM: read-out: Inhibition Rate at 10 nM (%); for inhibition at 0.5 µM: read-out: Inhibition Rate at 500 nM (%)
[15] = Western blot, 24 hours of compound treatment, compounds tested at 50 nM and 500 nM (concentration for the table not stated)
[16] = 24 hours treatment, compounds at 50 nM and 500 nM (concentration behind the class not stated)

T1 sequence (P48729 whole entry): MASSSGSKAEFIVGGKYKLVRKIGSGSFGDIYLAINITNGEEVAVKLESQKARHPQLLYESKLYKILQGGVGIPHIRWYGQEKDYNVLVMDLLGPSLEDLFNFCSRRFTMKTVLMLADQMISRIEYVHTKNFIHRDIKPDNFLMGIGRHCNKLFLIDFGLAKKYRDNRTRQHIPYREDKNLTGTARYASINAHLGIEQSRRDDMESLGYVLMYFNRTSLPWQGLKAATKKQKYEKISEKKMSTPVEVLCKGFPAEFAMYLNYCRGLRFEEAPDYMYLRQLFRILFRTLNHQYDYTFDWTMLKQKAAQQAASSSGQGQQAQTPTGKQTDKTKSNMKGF
T1 sequence (Q96SW2 whole entry): as the sequence (Q96SW2 whole entry) above
T1 sequence (Q16531 whole entry partner): as the sequence (Q16531 whole entry partner) above

SMILES	CK1α substrate protein remaining % [1, 15]	IKZF 1 substrate protein remaining % [2, 15]	IKZF2 substrate protein remaining % [3, 15]	IKZF3 substrate protein remaining % [4, 15]	Wee1 substrate protein remaining % [5, 15]	GSPT1 substrate protein remaining % [6, 15]	inhibition at 0.5 µM [7]	inhibition at 2 µM [7]	inhibition at 0.01 µM [8]	inhibition at 0.5 µM [8]	inhibition at 0.01 µM [9]	inhibition at 0.5 µM [9]	inhibition at 0.01 µM [10]	inhibition at 0.5 µM [10]	inhibition at 0.01 µM [11]	inhibition at 0.5 µM [11]	inhibition at 0.01 µM [12]	inhibition at 0.5 µM [12]	inhibition at 0.01 µM [14]	inhibition at 0.5 µM [14]	other results
O=C1CCC(N2Cc3cc(CN4CCN(c5cccc(F)c5F)CC4)ccc3C2=S)C(=O)N1 (stereo not drawn) [GT-08210, 3-(5-((4-(2,3-difluorophenyl)piperazin-1-yl)methyl)-1-thioxoisoindolin-2-yl)piperidine-2,6-dione]	B (80%< substrate protein remaining %≤ 100%)	A (0% ≤ substrate protein remaining % ≤ 80%)	A (0% ≤ substrate protein remaining % ≤ 80%)	A (0% ≤ substrate protein remaining % ≤ 80%)	A (0% ≤ substrate protein remaining % ≤ 80%)	A (0% ≤ substrate protein remaining % ≤ 80%)	60 to 80%	80 to 100%	20 to 30%	80 to 100%	10 to 20%	80 to 100%	5 to 10%	80 to 100%	20 to 30%	80 to 100%	20 to 30%	60 to 70%			
COc1ccccc1N1CCN(Cc2cccc3c2CN(C2CCC(=O)NC2=O)C3=S)CC1 (stereo not drawn) [GT-08260, 3-(4-((4-(2-methoxyphenyl)piperazin-1-yl)methyl)-1-thioxoisoindolin-2-yl)piperidine-2,6-dione]	B (80%< substrate protein remaining %≤ 100%)	B (80%< substrate protein remaining %≤ 100%)	B (80%< substrate protein remaining %≤ 100%)	B (80%< substrate protein remaining %≤ 100%)	A (0% ≤ substrate protein remaining % ≤ 80%)	A (0% ≤ substrate protein remaining % ≤ 80%)	60 to 80%	80 to 100%											20 to 30%	40 to 50%	inhibition at 0.01 µM ([13]; read-out: Inhibition Rate at 10 nM (%)): 70 to 80%; inhibition at 0.5 µM ([13]; read-out: Inhibition Rate at 500 nM (%)): 70 to 80%
Cc1ccc(Sc2ccccc2N2CCN(Cc3cccc4c3CN(C3CCC(=O)NC3=O)C4=S)CC2)c(C)c1 (stereo not drawn) [GT-08332, 3-(4-((4-(2-((2,4-dimethylphenyl)thio)phenyl)piperazin-1-yl)methyl)-1-thioxoisoindolin-2-yl)piperidine-2,6-dione]									10 to 20%	80 to 100%	-5 to 0%	80 to 100%	-5 to 0%	60 to 80%	-5 to 0%	80 to 100%	0 to 5%	80 to 100%	-5 to 0%	80 to 100%	CK1α substrate protein remaining % [1, 16]: A (0% ≤ substrate protein remaining % ≤ 80%); IKZF 1 substrate protein remaining % [2, 16]: A (0% ≤ substrate protein remaining % ≤ 80%); IKZF2 substrate protein remaining % [3, 16]: A (0% ≤ substrate protein remaining % ≤ 80%); IKZF3 substrate protein remaining % [4, 16]: B (80%< substrate protein remaining %≤ 100%); Wee1 substrate protein remaining % [5, 16]: A (0% ≤ substrate protein remaining % ≤ 80%); GSPT1 substrate protein remaining % [6, 16]: A (0% ≤ substrate protein remaining % ≤ 80%)
